Like-named read-outs stand apart in the source and are kept apart here.
How the values were obtained:
[1] = tested on: Vesicular Stomatitis Virus (VSV); format: cell-based
red blood cells = format: cell-based
Experimental: In another assay, the rabbit polyclonal sera may be reacted with treated red blood cells. After washing off unbound antibody, a FITC labeled goat anti-rabbit Fab′2 fragment (anti H+L chains, Caltag) is added. The binding of FITC label to the red blood cells correlates with the amount of acridine bound to the red blood cell surface, and is assessed by FACScan™ analysis (Becton, Dickinson and Co., NJ). The relative modification of the red blood cells is determined from the FACScan™ mean fluorescence value.
A 20 mL sample of leukoreduced whole blood (Blood Source, Sacramento, Calif.) was centrifuged at 4,100×g for 5 minutes at room temperature in each of four 50 mL centrifuge tubes. The supernatant was removed from each tube to provide red cell concentrate (RCC). […] For each washed RCC, cells were resuspended in 5 mL of the solution used for washing. This is now referred to as the RBC test sample. […] These samples were incubated for 20 hours at room temperature. After incubation, the RBC were washed in BBS (Blood Bank Saline, 0.9% saline, unbuffered, Fisher Scientific) and were diluted to a final hematocrit of 4%. A 25 μL aliquot of each was mixed with 15 μL of rabbit polyclonal anti-acridine sera diluted 1:100 in BBS and the mixture was incubated at 37° C. for 30 minutes. The cells were subsequently washed with 1.5 mL BBS. After washing was complete, the cells were mixed with 50 μL of FITC labeled goat anti-rabbit Fab′2 fragment (1:64 dilution in BBS) and incubated at 37° C. for 30 minutes. […] Note that the quenching improves as glutathione is neutralized with increasing amounts of sodium hydroxide.
The FACScan analysis of the binding of rabbit anti-acridine sera to treated red cells was used to assess a variety of quenching conditions. […] The tables represent data from two different experiments, each with samples treated under standard conditions or with 20 mM neutralized glutathione. […] The data within an experiment provides the relative efficacy of the various treatments. Because the assay may depend on the lot of red blood cells used, the absolute values of mean fluorescence may vary from one study to the next, such that relative values should only be compared within a given experiment. […] Neutralized glutathione at 20 mM results in close to background levels.
An untreated control sample as well as a standard sample (co-addition of 2 mM acidic glutathione with 0.2 mM PIC-1) were also assessed.
Full units of red cell concentrates (Interstate Blood Bank, Inc., Memphis, Tenn.) were leukoreduced. A volume of 200 mL of this RCC (80% hematocrit) was mixed with 94 mL of Erythrosol or 100 mL of Adsol (Baxter Healthcare Corp., Deerfield, Ill.) as control (unit 1). A volume of 20 mL 8% dextrose was used to dissolve PIC-1 (mg) and acid glutathione (mg) and added to one unit to provide 0.2 mM PIC-1 and 2 mM glutathione (unit 2). […] For the glutathione, 1.2 mL of 10 N NaOH was added (2 equivalents). The PIC-1 was mixed with the unit, followed 1 minute later (unit 3) or 5 minutes later (unit 4) by glutathione. For unit 5, neutralized glutathione was mixed first, followed 10 minutes later by the PIC-1. […] All units were mixed by grasping the ends of the blood bag and mixing in a FIG. 8 motion 30 times. These were then incubated at room temperature for 20 hours total. A compound adsorption device (CAD), comprising a polymeric resin contained within a mesh pouch, was used for all but the control sample. This device is intended to remove residual PIC-1, PIC-1 breakdown products, and glutathione from the samples. Samples were incubated for 8 hours, then transferred to a second blood bag containing the CAD and incubated for an additional 12 hours. Following the room temperature incubation, samples were transferred to a refrigerator (4° C.) and stored up to 43 days.

In the case of `O=C(CCNc1c2ccccc2nc2ccccc12)OCCN(CCCl)CCCl` [PIC-1], the “inactivation of a high titer of VSV” value [1] is reported as “essentially complete inactivation”, the mean fluorescence (red blood cells; 16C day 0.8, unit 2: standard 0.2 mM PIC-1+2 mM GSH) is reported as 284 and the mean fluorescence (red blood cells; 16C day 0.8, unit 3: 0.2 mM PIC-1, 1' delay, 20 mM GSH+2 eq base) is reported as 20.1. For the same molecule, the mean fluorescence (red blood cells; 16C day 0.8, unit 4: 0.2 mM PIC-1, 5' delay, 20 mM GSH+2 eq base) was 46.0, the mean fluorescence (red blood cells; 16C day 0.8, unit 5: 20 mM GSH+2 eq base, 10' delay, 0.2 mM PIC-1) was 20.0 and the mean fluorescence (red blood cells; 16C day 2, unit 2: standard 0.2 mM PIC-1+2 mM GSH) was 193.5. It also gave a mean fluorescence (red blood cells; 16C day 2, unit 3: 0.2 mM PIC-1, 1' delay, 20 mM GSH+2 eq base) of 14.58, a mean fluorescence (red blood cells; 16C day 2, unit 4: 0.2 mM PIC-1, 5' delay, 20 mM GSH+2 eq base) of 34.07 and a mean fluorescence (red blood cells; 16C day 2, unit 5: 20 mM GSH+2 eq base, 10' delay, 0.2 mM PIC-1) of 12.31. For the same molecule, the mean fluorescence (red blood cells; 16C day 7, unit 2: standard 0.2 mM PIC-1+2 mM GSH) was 142.1, the mean fluorescence (red blood cells; 16C day 7, unit 3: 0.2 mM PIC-1, 1' delay, 20 mM GSH+2 eq base) was 4.96 and the mean fluorescence (red blood cells; 16C day 7, unit 4: 0.2 mM PIC-1, 5' delay, 20 mM GSH+2 eq base) was 18.84. For the same molecule, the mean fluorescence (red blood cells; 16C day 7, unit 5: 20 mM GSH+2 eq base, 10' delay, 0.2 mM PIC-1) was 5.34, the mean fluorescence (red blood cells; 16C day 14, unit 2: standard 0.2 mM PIC-1+2 mM GSH) was 135.7 and the mean fluorescence (red blood cells; 16C day 14, unit 3: 0.2 mM PIC-1, 1' delay, 20 mM GSH+2 eq base) was 4.09. The mean fluorescence (red blood cells; 16C day 14, unit 4: 0.2 mM PIC-1, 5' delay, 20 mM GSH+2 eq base) was 8.41, the mean fluorescence (red blood cells; 16C day 14, unit 5: 20 mM GSH+2 eq base, 10' delay, 0.2 mM PIC-1) was 3.29 and the mean fluorescence (red blood cells; 16C day 22, unit 2: standard 0.2 mM PIC-1+2 mM GSH) was 90.8. It also gave a mean fluorescence (red blood cells; 16C day 22, unit 3: 0.2 mM PIC-1, 1' delay, 20 mM GSH+2 eq base) of 2.61, a mean fluorescence (red blood cells; 16C day 22, unit 4: 0.2 mM PIC-1, 5' delay, 20 mM GSH+2 eq base) of 4.46 and a mean fluorescence (red blood cells; 16C day 22, unit 5: 20 mM GSH+2 eq base, 10' delay, 0.2 mM PIC-1) of 2.12. The mean fluorescence (red blood cells; 16C day 28, unit 2: standard 0.2 mM PIC-1+2 mM GSH) was 128.7, the mean fluorescence (red blood cells; 16C day 28, unit 3: 0.2 mM PIC-1, 1' delay, 20 mM GSH+2 eq base) was 2.6 and the mean fluorescence (red blood cells; 16C day 28, unit 4: 0.2 mM PIC-1, 5' delay, 20 mM GSH+2 eq base) was 5.69. For the same molecule, the mean fluorescence (red blood cells; 16C day 28, unit 5: 20 mM GSH+2 eq base, 10' delay, 0.2 mM PIC-1) was 2.83, the mean fluorescence (red blood cells; 16C day 35, unit 2: standard 0.2 mM PIC-1+2 mM GSH) was 153.4 and the mean fluorescence (red blood cells; 16C day 35, unit 3: 0.2 mM PIC-1, 1' delay, 20 mM GSH+2 eq base) was 2.74. For the same molecule, the mean fluorescence (red blood cells; 16C day 35, unit 4: 0.2 mM PIC-1, 5' delay, 20 mM GSH+2 eq base) was 6.71, the mean fluorescence (red blood cells; 16C day 35, unit 5: 20 mM GSH+2 eq base, 10' delay, 0.2 mM PIC-1) was 2.58 and the mean fluorescence (red blood cells; 16C day 43, unit 2: standard 0.2 mM PIC-1+2 mM GSH) was 136.1. It also gave a mean fluorescence (red blood cells; 16C day 43, unit 3: 0.2 mM PIC-1, 1' delay, 20 mM GSH+2 eq base) of 2.43, a mean fluorescence (red blood cells; 16C day 43, unit 4: 0.2 mM PIC-1, 5' delay, 20 mM GSH+2 eq base) of 4.51 and a mean fluorescence (red blood cells; 16C day 43, unit 5: 20 mM GSH+2 eq base, 10' delay, 0.2 mM PIC-1) of 2.46. It also gave a Mean fluorescence intensity (red blood cells; RBC CHES pH 9 3x wash, 0.2 mM PIC-1, 2 mM GSH) of 12.1, a Mean fluorescence intensity (red blood cells; RBC CHES pH 9 3x wash, 0.2 mM PIC-1, 20 mM GSH+0.9 eq NaOH) of 3.9 and a Mean fluorescence intensity (red blood cells; RBC CHES pH 9 3x wash, 0.2 mM PIC-1, 20 mM GSH+1.5 eq NaOH) of 1.9. The Mean fluorescence intensity (red blood cells; RBC CHES pH 9 3x wash, 0.2 mM PIC-1, 20 mM GSH+2 eq NaOH) was 1.9, the Mean fluorescence intensity (red blood cells; RBC Erythrosol pH 7.3 3x wash, 0.2 mM PIC-1, 2 mM GSH) was 199 and the Mean fluorescence intensity (red blood cells; RBC Erythrosol pH 7.3 3x wash, 0.2 mM PIC-1, 20 mM GSH+0.9 eq NaOH) was 26.7. The Mean fluorescence intensity (red blood cells; RBC Erythrosol pH 7.3 3x wash, 0.2 mM PIC-1, 20 mM GSH+1.5 eq NaOH) was 4.9, the Mean fluorescence intensity (red blood cells; RBC Erythrosol pH 7.3 3x wash, 0.2 mM PIC-1, 20 mM GSH+2 eq NaOH) was 3.4 and the Mean fluorescence intensity (red blood cells; RBC PBS pH 8 3x wash, 0.2 mM PIC-1, 2 mM GSH) was 25. It also gave a Mean fluorescence intensity (red blood cells; RBC PBS pH 8 3x wash, 0.2 mM PIC-1, 20 mM GSH+0.9 eq NaOH) of 7.2.
